# Reference: US12201649B2, “Pharmaceutical composition comprising oxidizable biphenol and manganese porphyrin, and method of using the same” (Villanova University, priority 2021, dated 2025)
# Where two headings read alike, the source gives them in different places.
# Columns and labels:
# Jurkat cells [1] = assay: apoptosis (Annexin-PE) and necrosis (RedDot 2) by flow cytometry, 4 hours; type: cell-based, human; details: for effect on Jurkat cells (alive, apoptotic, necrotic): 4 hours
# Procedure: Referring to FIGS. 4, 5, 6, 8, 12 and 15, cells were treated with the indicated compounds or vehicle for 4 hours in RPMI medium with 10% fetal bovine serum (FBS). RPMI medium, also known as RPMI 1640, is a growth medium used in cell culture. In these and other figures, “vehicle” represents when a treatment compound is omitted and replaced with the vehicle that the compound is dissolved in. Thus, when a MnP is omitted, water is added in its place. When an oxidizable phenol is omitted, DMSO is added for a resulting final concentration in the cell media of 0.05% DMSO. Apoptosis was measured using Annexin-PE, and necrosis was measured with RedDot 2. Fluorescence was read on an Accuri C6 flow cytometer with excitation from a 488 nm laser, and FL2 and FL4 filters were used for Annexin-PE and RedDot2, respectively. 10,000 events were acquired. Flow cytometry data was analyzed using Flowlogic software from Inivai Technologies of Australia. […] Percentage of alive, apoptotic, or necrotic cells was determined and graphed as the average±the standard deviation.
# The combination of tBHQ and MnTMPyP is toxic to Jurkat cells, a CD4+ T-cell leukemic cell line. […] Cells that were alive, apoptotic or necrotic were determined using flow cytometry. Two specimens (biological duplicates) were measured for each sample.
# Cells that were alive, apoptotic or necrotic were determined using flow cytometry, with n=2 (biological duplicates).
# Referring to FIG. 12, unlike tBHQ, dtBHQ has no toxicity to Jurkat cells in combination with MnTMPyP. […] Cells that were alive, apoptotic or necrotic were determined using flow cytometry, with n=2 (biological duplicates).
# Referring to FIG. 15, Jurkat cell death upon exposure to MNTE-2-PyP and MnTNBuOE-2-PyP (labelled as Mn2E and Mn2BuOE, respectively, in FIG. 15) are compared with that of exposure to Mn4M. […] Cells that were alive, apoptotic or necrotic were determined using flow cytometry, with n=2 (technical duplicates).
# Jurkat cells were treated with 5 mM ascorbic acid or 5 μM tBHQ with or without 12 μM MnTMPyP for 4 h. Apoptosis was measured using Annexin-PE, necrosis with RedDot 2. […]
# [2] = system: MDA-MB-231 breast cancer cells; details: 24 hours; for efficacy at killing breast cancer cells compared with MnTM4PyP: when combined with tBHQ
# NALM6 cells = assay: apoptosis (Annexin-PE) and necrosis (RedDot 2) by flow cytometry, 4 hours; type: cell-based; details: tBHQ or 12 μM MnTMPyP alone
# Jurkat cells [3] = assay: cells; details: Homo sapiens, 24 h
# Procedure: Referring to FIG. 16, Jurkat cells were treated with the indicated compounds for 24 hours in RPMI with 2% FBS. Live cells were measured using the CellTiter-Fluor dye, which enters living cells and is cleaved by intracellular proteases to release the fluorescent coumarin molecule. Fluorescence was measured on a ClarioStar Plus plate reader in a 96-well plate format with excitation at 390 nm and emission capture at 505 nm. […] Data are graphed as the average±the standard error, along with the fit.
# The relative number of viable cells in a sample was determined using CellTiter-Fluor dye with relative fluorescence units (RFU). […] The LC50 value for a compound is the concentration required to kill half of the cells tested after a specified test duration such as 24 hours.
# [4] = system: PC3 prostate cancer cells; assay: cells; details: 24 h
# [5] = system: MDA-MB-231 breast cancer cells; assay: cells; details: Homo sapiens, MDA-MB-231, 24 h
# [6] = read-out: LC50 for tBHQ in the presence of Mn2BuOE
structure (smiles),measurement,setting,value
CCCCOCC[n+]1ccccc1-c1c2nc(c(-c3cccc[n+]3CCOCCCC)c3ccc([nH]3)c(-c3cccc[n+]3CCOCCCC)c3nc(c(-c4cccc[n+]4CCOCCCC)c4ccc1[nH]4)C=C3)C=C2.[Mn+3] [Mn2BuOE],effectiveness at 1.2 μM versus 12 μM,"Jurkat cells [1]; in combination with 5 μM tBHQ, four hours",almost as effective at 1.2 μM as it was at 12 μM
same,efficacy at killing breast cancer cells compared with MnTM4PyP,[2],higher efficacy
same,concentration at which Mn2BuOE is active,[2]; with 20 μM tBHQ,less than 1 μM
same,toxicity of Mn2BuOE alone,"[2]; without tBHQ, tested concentrations",not toxic at tested concentrations
CC[n+]1ccccc1-c1c2nc(c(-c3cccc[n+]3CC)c3ccc([n-]3)c(-c3cccc[n+]3CC)c3nc(c(-c4cccc[n+]4CC)c4ccc1[n-]4)C=C3)C=C2.[Mn+3] [Mn2TE2],efficacy at killing breast cancer cells compared with MnTM4PyP,[2],higher efficacy
"C[n+]1ccc(-c2c3nc(c(-c4cc[n+](C)cc4)c4ccc([nH]4)c(-c4cc[n+](C)cc4)c4nc(c(-c5cc[n+](C)cc5)c5ccc2[nH]5)C=C4)C=C3)cc1.[Mn+3] [MnTMPyP, Mn(III)tetrakis(1-methyl-4-pyridyl)porphyrin]","toxicity to NALM6 cells, compound individually",NALM6 cells,low toxicity
same,"effect on Jurkat cells (alive, apoptotic, necrotic)",Jurkat cells [1]; 12 μM MnTMPyP alone,largely unaffected
"CC(C)(C)c1cc(O)ccc1O [tBHQ, tert-butylhydroquinone]","toxicity to NALM6 cells, compound individually",NALM6 cells,low toxicity
same,"effect on Jurkat cells (alive, apoptotic, necrotic)",Jurkat cells [1]; 5 μM to 20 μM tBHQ alone,largely unaffected
same,toxicity of tBHQ alone,[2]; at 100 μM tBHQ,no toxicity observed
same,CC50,Jurkat cells [3]; read-out: LC50 for tBHQ alone,80 ± 30 µM
same,CC50,Jurkat cells [3]; [6],1.29 ± 0.04 µM
same,CC50,[4]; read-out: LC50 for tBHQ alone,> 100 µM
same,CC50,[4]; [6],16 ± 7 µM
same,CC50,[5]; read-out: LC50 for tBHQ alone,> 100 µM
same,CC50,[5]; read-out: LC50 for tBHQ in the presence of MnTMPyP,20 µM
